Assay results: paper PMC7111485 (Bioorganic & Medicinal Chemistry, 2016)

Key:
[1] = tested on: HeLa cells; settings: for cell death ratio: human
[2] = biological target: Bovine spleen cathepsin B (Bos taurus, UniProt P07688); assay type: biochemical

| Compound | cell death ratio [1] | also measured |
| --- | --- | --- |
| COc1cc(/C=C/C(=O)N[C@H](COC(=O)c2ccccc2)C(=O)NC2CCCCC2)cc(OC)c1OC [ent-7k] |  | cytotoxicity (in words) [1]: no cytotoxicity |
| COc1cccc(/C=C/C(=O)N[C@@H](COC(=O)c2ccccc2)C(=O)NC2CCCCC2)c1 [7i, (S)-N-(E)-3′-Methoxy-3-phenylprop-2-enoicserine(benzoyl)cyclohexylamide] | less than 20% |  |
| COc1cc(/C=C/C(=O)N[C@@H](COC(=O)c2ccccc2)C(=O)NC2CCCCC2)cc(OC)c1 [7h, (S)-N-(E)-3′,5′-Dimethoxy-3-phenylprop-2-enoicserine(benzoyl)cyclohexylamide] | less than 20% |  |
| O=C(/C=C/c1ccccc1)N[C@H](COC(=O)c1ccccc1)C(=O)NC1CCCCC1 (single isomer, unassigned) [ent-3] |  | cytotoxicity (in words) [1]: no cytotoxicity; Inhibition (%) [2]: no inhibition |
| COc1cc(/C=C/C(=O)N[C@@H](COC(=O)c2ccccc2)C(=O)NC2CCCCC2)cc(OC)c1OC [7k, (S)-N-(E)-3′,4′,5′-Trimethoxy-3-phenylprop-2-enoicserine(benzoyl)cyclohexylamide] | less than 20% |  |
| O=C(/C=C/c1ccc(OC(=O)c2ccccc2)cc1)N[C@@H](COC(=O)c1ccccc1)C(=O)NC1CCCCC1 [7j, (S)-N-(E)-4′-Benzoyloxy-3-phenylprop-2-enoicserine(benzoyl)cyclohexylamine] | less than 20% |  |
| COc1ccccc1/C=C/C(=O)N[C@@H](COC(=O)c1ccccc1)C(=O)NC1CCCCC1 [7f, (S)-N-(E)-2′-Methoxy-3-phenylprop-2-enoicserine(benzoyl)cyclohexylamide] |  | inhibitory activity relative to 3 (times) [2]: about 10 times; inhibitory mechanism (Lineweaver–Burk plot) [2]: competitive inhibition |
| O=C(/C=C/c1ccccc1)N[C@@H](COC(=O)c1ccccc1)C(=O)NC1CCCCC1 [compound 3, (S)-N-Cinnamoyl serine(benzoyl)cyclohexylamide] | less than 20% |  |
